Data taken from patent publication US20100160250A1, “METHOD FOR TREATING INFLAMMATORY CONDITIONS” (priority 2008, published 2010).

Legend:
Format in all cases: cell-based
P2X7 receptor [1] = target: T1, P2X7 receptor (Homo sapiens, UniProt Q99572); assay: Calcium signalling (Fluo-3, FLIPR) in 1321N1 cells expressing P2X7, BzATP challenge; set-up: expressed in transfected cells; host or cells: human astrocytoma 1321N1 cells; conditions: human astrocytoma 1321N1 cells expressing P2X7, 30 uM BzATP; read-out: Inhibition of Ca^+2 signaling IC50
T1 sequence (Q99572 1-595): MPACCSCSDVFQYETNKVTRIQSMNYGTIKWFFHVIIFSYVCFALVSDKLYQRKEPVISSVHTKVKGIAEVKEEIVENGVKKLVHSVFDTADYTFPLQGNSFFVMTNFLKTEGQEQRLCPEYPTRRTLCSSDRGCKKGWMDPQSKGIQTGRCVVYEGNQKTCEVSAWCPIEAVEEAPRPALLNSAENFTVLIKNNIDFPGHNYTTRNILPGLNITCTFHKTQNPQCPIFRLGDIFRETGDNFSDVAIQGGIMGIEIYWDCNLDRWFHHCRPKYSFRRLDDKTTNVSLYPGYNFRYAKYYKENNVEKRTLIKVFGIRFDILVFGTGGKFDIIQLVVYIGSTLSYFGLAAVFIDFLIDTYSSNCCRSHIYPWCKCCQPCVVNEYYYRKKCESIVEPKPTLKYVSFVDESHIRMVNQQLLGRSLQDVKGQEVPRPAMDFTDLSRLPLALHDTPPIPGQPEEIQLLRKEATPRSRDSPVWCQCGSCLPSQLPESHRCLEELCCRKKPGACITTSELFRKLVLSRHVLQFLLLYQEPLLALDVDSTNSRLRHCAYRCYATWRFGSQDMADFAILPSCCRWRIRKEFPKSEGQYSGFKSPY
Method: Inhibition of Ca^2+ influx into the cell by antagonists of the P2X7 receptor measures inhibition of the ion channel activity of the P2X7 receptor.
Human astrocytoma (1321N1) cells expressing P2X7 were grown to confluency in 96-well plates. Cells were loaded with a solution of Fluo-3 AM (2.5 μM final concentration) in an assay buffer consisting of 10 mM KCl, 118 mM NaCl, 0.25 mM CaCl2, 1 mM MgCl2, 20 mM HEPES, 10 mM glucose, pH 7.4. After a 60-minute incubation with Fluo-3 AM at 25° C., cells were washed and stimulated with serially diluted concentrations of compound and then challenged with 30 uM BzATP. Calcium fluorescence was measured using the FLIPR 89 (Molecular Devices Corp., Sunnyvale, Calif.) and results were calculated using Prism Graph Pad version 3.03 (San Diego, Calif.). Inhibition of calcium dependent fluorescence indicates the assayed compound is an antagonist of the P2X7 receptor.

P2X7 receptor [2] = target: T1, P2X7 receptor; assay: IL-1β secretion assay in LPS-primed human monocytes stimulated with ATP; set-up: monocytes were selected by adherence to the tissue culture plastic; endogenous in cells; host or cells: LPS-primed adherent monocytes from human peripheral blood; conditions: human peripheral blood monocytes, 1 ng/mL LPS, 1 mM ATP, 30 min; read-out: IL1β inhibition IC50
Text: Inhibition of IL-1β release by antagonists of the P2X7 receptor is a model of ameliorating inflammatory condition. This assay is an in vitro assay of cytokine secretion that can be used to evaluate the ability of compounds of this invention of Formula I to inhibit cytokine secretion, as the secretion of cytokines contributes to the inflammation in asthma, COPD and other pulmonary diseases, as well as in RA, IBD and neuropathic pain.
Peripheral blood from healthy human volunteers was collected in an acid-citrate-dextrose (ACD) buffer to prevent clotting, layered over a Ficoll-Paque gradient (1:1), and centrifuged for 45 minutes at 1200 rpm. The interface between the plasma layer and the Ficoll layer (buffy coat) was then diluted in RPMI 1640/10% heat inactivated FBS and centrifuged for 10 minutes at 1500 rpm. The resultant pellet was re-suspended in media containing 1 ng/mL lipopolysaccharide (LPS) and plated at a density of 500,000 cells/mL. After a 3 hour incubation (37° C., 5% CO2, humidified air) monocytes were selected by adherence to the tissue culture plastic by washing wells with media. Following the media wash, cells were incubated for 2 minutes with the antagonists prior to the addition of 1 mM ATP. Cells were allowed to incubate with compounds for 30 minutes at 37° C. after which the supernatant was removed for immediate determination of IL-1β concentration. The concentration of IL-1β in cell supernatants was measured using the Bio-Plex (Bio-Rad) system according to manufacture's instructions and inhibition constants were calculated using Prism Graph Pad version 3.03 (San Diego, Calif.). IC50 values represent the concentrations of antagonist compounds necessary to inhibit 50% of the activity (calcium dependent fluorescence or IL-1β concentration) elicited by a given concentration of ATP.

P2X7 receptor [3] = target: T1, P2X7 receptor; assay: Pore formation assay (Yo-Pro dye influx) in 1321N1 cells expressing P2X7, BzATP challenge; set-up: expressed in transfected cells; host or cells: human astrocytoma 1321N1 cells; conditions: 1321N1 cells expressing P2X7, 100 uM BzATP, Yo-Pro fluorescence after 90 minutes
Method: Inhibition of Yo-Pro fluorescent dye influx into the cells following P2X7 receptor activation provides a read-out of compounds potency in inhibition of pore formation activity of the P2X7 receptor.
Assay was conducted essentially as in Alcaraz et al. Human astrocytoma (1321N1) cells expressing P2X7 were seeded in 96-well plates at a density of 200,000 cells/well in assay buffer consisting of 5 mM KCl, 140 mM KAspartate, 10 mM glucose, 10 mM Hepes pH 7.0, 10 mM N-methyl-D-glucoseamine, 1 mM EDTA and 1 uM Yo-Pro dye. Cells were exposed to serially diluted concentrations of compound and then challenged with 100 uM BzATP. Yo-Pro fluorescence was measured after 90 minutes. Inhibition of Yo-Pro dependent fluorescence indicates the assayed compound is an antagonist of the P2X7 receptor.

**Q.** For `O=C(Nc1ncnc2c1ncn2[C@@H]1O[C@H](C(=O)O)C2OC3(CCCCC3)O[C@@H]21)NC12CC3CC(CC(C3)C1)C2` (stereo partly drawn) [Compound 38], which IC50 (P2X7 receptor [1]) is on record?
**A.** 0.597 µM

**Q.** And the IC50 (P2X7 receptor [2])?
**A.** 0.098 µM

**Q.** What about the IC50 (P2X7 receptor [3]) of the same compound?
**A.** 0.052 µM

**Q.** What does the source list for `O=C(Nc1ncnc2c1ncn2[C@@H]1O[C@H](CO)C2OC3(CCCCC3)O[C@@H]21)NC1CCCCC1` (stereo partly drawn) [Compound 39, 6-(cyclohexylurea)adenosine 2′,3′-cyclohexyl ketal]?
**A.** IC50 (P2X7 receptor [1]): 0.477 µM; IC50 (P2X7 receptor [2]): 0.065 µM; IC50 (P2X7 receptor [3]): 0.346 µM

**Q.** What does the source list for `CCNC(=O)[C@H]1O[C@@H](n2cnc3c(NC(=O)NC4CCCCC4)ncnc32)[C@H]2OC3(CCCCC3)OC12` (stereo partly drawn) [Compound 43, 6-(cyclohexylurea)adenosine 2′,3′-cyclohexyl ketal 5′-ethyl carboxamide]?
**A.** IC50 (P2X7 receptor [1]): 0.295 µM; IC50 (P2X7 receptor [2]): 0.069 µM; IC50 (P2X7 receptor [3]): 0.152 µM

**Q.** What does the source list for `O=C(Nc1ncnc2c1ncn2[C@@H]1O[C@H](C(=O)NCCO)C2OC3(CCCCC3)O[C@@H]21)NC1CCCCC1` (stereo partly drawn) [Compound 44, 6-(cyclohexylurea)adenosine 2′,3′-cyclohexyl ketal 5′-(2-hydroxy)ethyl carboxamide]?
**A.** IC50 (P2X7 receptor [1]): 0.404 µM; IC50 (P2X7 receptor [2]): 0.058 µM; IC50 (P2X7 receptor [3]): 0.257 µM

**Q.** For `CCNC(=O)OC[C@H]1O[C@@H](n2cnc3c(NC(=O)NC4CCCCC4)ncnc32)[C@H]2OC3(CCCCC3)OC12` (stereo partly drawn) [Compound 46], which IC50 (P2X7 receptor [1]) is on record?
**A.** 0.852 µM

**Q.** And the IC50 (P2X7 receptor [2])?
**A.** 0.099 µM

**Q.** What about the IC50 (P2X7 receptor [3]) of the same compound?
**A.** 0.234 µM
